Data published in patent US8138304B2, “Neural regeneration peptides and formulations thereof” (Neuren Pharmaceuticals Limited, priority 2005, dated 2012).
Where no end group is shown, it is not given here.

Columns and labels:
[1] = test system: purified primary placental trophoblasts; assay: TNF-alpha-induced cytotoxicity in isolated trophoblasts (survival assay); type: cell-based, human; conditions: 24 hrs pre-incubation
Experimental: Human trophoblast cells were isolated from term placentas with prior approval by the Ethics Committee of the University of Auckland and consent of the patients. The maternal decidua was removed, exposing the villous interior of the placenta. Pieces of villous tissue were cut out and washed thoroughly with PBS before digestion using 0.25% trypsin. The digest was then diluted in Locke Ringers Buffer and DNAase I. Digestion of connective tissue surrounding the placental cells was carried out while stirring the mixture with a magnetic stirrer at a temperature of 37° C. The process was repeated 8 times, with the last 6 supernatants being collected in a bottle containing fetal bovine serum (FBS). The digestion step produced a heterogeneous dispersed cell preparation. The pooled supernates was centrifuged for 7 minutes at 1200 rpm. The cell pellet was resuspended in PBS and centrifuged. This was followed by a 10-minute incubation in erythrocyte lysis buffer with an underlayer of FBS in the last 2 minutes, followed by centrifugation for 7 minutes. Cells were resuspended in M199 medium and recentrifuged.
Cells were then purified using a percoll gradient (5, 20, 30, 35, 40, 50 and 60%). The gradients were prepared with the 60% percoll on the bottom, with decreasing concentrations near the top of the gradient. Cells were introduced into the 5% percoll layer. The cells were centrifuged for 20 minutes at 1200G to separate trophoblasts from debris and other cell types, leaving a band of trophoblasts in the 40% percoll band. This band was collected, the cells washed in M199 medium centrifuged and finally counted and plated according to the methods of Keelan et al, 1998.
In this series of experiments, we studied whether NRP-5RG D6A was able to protect purified primary placental trophoblasts against TNF-alpha mediated injury.
In this study, we plated 30,000 freshly isolated trophoblast cells per well in microtiter well plates followed by pre-incubation with NRP-5RG D6A (SEQ ID NO: 1) for 24 hours. […]

[2] = test system: primary human trophoblasts; assay: Trophoblast proliferation assay (BrdU incorporation); type: cell-based
Experimental: Cell proliferation was determined by BrdU incorporation to examine the effects of NRP-5RG D6A on the proliferation of trophoblasts. EGF (0.8×10^−9 M) was used as a positive control, since studies have previously shown it plays a role in enhancing trophoblast proliferation (Maruo et al., 1992).
Initially cells were treated with NRP-5RG D6A (SEQ ID NO: 1), EGF and BrdU (0.05 μM) for 72 hrs. After the first 24 hrs, an 80% media change was carried out since BrdU is toxic over long incubation periods. Following 72 hrs of incubation, the reaction was stopped by fixation in 4% PFA. However, with this experimental design, most trophoblasts would form syncytia by the end of the 72 hrs, hindering accurate examination of the proliferative effect of NRP-5RG D6A on trophoblasts. […] This allowed analysis of proliferation of mononuclear trophoblasts.
Cell proliferation was evaluated over 24 hrs after seeding 1.3×10^5 cells/cm^2 in culture media (1% serum) treated with 0.05 μM BrdU, NRP-5RG D6A and EGF (FIG. 13).

## REGRRAAPGRAGG-NH2 (listed as Homo sapiens) [SEQ ID NO: 1, 13-mer NRP analogue]
[1]; 1 pM, TNF-alpha 5 or 50 ng/ml plus interferon gamma, 48 h
  protection from TNF-alpha mediated injury: 100%
[1]; 10 pM
  cytoprotection from TNF-alpha mediated injury: protective
[1]; 1 nM
  cytoprotection from TNF-alpha mediated injury: not statistically significant
[2]; 10^−13 M, 24 hrs, BrdU
  trophoblast proliferation compared to the control: no increase in proliferation
[2]; 10^−14 M, 24 hrs, BrdU
  increase in trophoblast proliferation: 183.3±50.2%
[2]; any concentration other than 10^−14 M (higher concentrations, data not shown)
  trophoblast proliferation at other concentrations: no proliferative effect
